Results on 2 compounds are retold here after patent US7906684B2, “Antioxidants” (Merck Patent Gesellschaft Mit Beschrankter Haftung, priority 2006, dated 2011).

A short description of data set [1]: Photoconversion test, 4% solution in isopropyl myristate on Perspex support, simulated solar irradiation. Format: physicochemical. To be noted: 2 μlcm^−2 on rough Perspex, Suntester 1 h 50 min, extracted with isopropanol, made up to 50 ml. On the procedure:
A 4% solution of the substance in isopropyl myristate is applied at a rate of 2 μlcm^−2 to a rough Perspex support. The sample is subjected to simulated solar irradiation in a Suntester for 1 h 50 min. After irradiation, the sample is extracted with 40 ml of isopropanol and made up to a precise volume of 50 ml. Compared with an unirradiated sample, an increase in absorbance at the substance maximum at 285 nm of 0.77 absorption units arises.

A short description of data set [2]: lipid assay (2,2'-azobis(2-aminopropane) = ABAP assay), Bünger et al. method. Conditions: according to the Bünger et al. method. The text has this: (§1) A detailed description, besides the […] just described, for the lipid assay (or 2,2′-azobis(2-aminopropane)=ABAP assay) or the TEAC assay (TEAC=trolox equivalent antioxidant capacity) is also found in Bünger et al, International Journal of Cosmetic Science, 2006, 28, 135-146.

The nature of data set [3]: TEAC assay (trolox equivalent antioxidant capacity), Bünger et al. method. Conditions: according to the Bünger et al. method.
Excerpt: as §1

Data set [4] in a line: Photoconversion test, substance on roughened Perspex plates, sun simulation. Format: physicochemical. To be noted: 0.75 mg/cm^−2 on roughened Perspex plates, FIG. 1. On the procedure:
The substance is applied to roughened Perspex plates (0.75 mg/cm^−2) and irradiated under sun simulation. The dose is to be understood as the absolute, unweighted total UV irradiation dose. After each irradiation step, the UV absorption of the sample is measured against placebo (placebo=Perspex plate with glycerol).

Consider `COc1ccc(C(O)c2ccccc2)cc1` (stereo not shown) [Compound (9), (4-methoxyphenyl)phenylmethanol], for which the “increase in absorbance at the substance maximum at 285 nm compared with an unirradiated sample” value in data set [1] is listed as 0.77 absorption units.

`COc1ccc(C(O)c2ccccc2)c(O)c1` (stereo not shown) [Compound (5), 2-(hydroxyphenylmethyl)-5-methoxyphenol] came in with a lipid assay in data set [2] of 8%. The TEAC assay in data set [3] is given as 50%. Further, in data set [4], the “UV absorption of the sample after irradiation, measured against placebo” value is “increases in absorption power due to irradiation”.
